# Experimental data taken from ChEMBL document CHEMBL3400120, “Design, synthesis and biological evaluation of tasiamide B derivatives as BACE1 inhibitors” (Bioorg Med Chem, 2015).
# Activity calls are given as the source filed them. The rule behind the calls is not given here. Numbered stars: 1 amine (or outer) side, 2 acyl side, 3 side chain; on linkers, the order of the positions; unused ones are H or OH. Square brackets hold non-standard residues; d marks the D form. Peptide text beside a SMILES is read from it. * marks the point of attachment. Ahppa(3S,4S) = O=C(C[C@H](O)[C@H](Cc1ccccc1)N[*:1])[*:2]; dNMeF = CN[C@H](Cc1ccccc1)C(=O)O; NMeQ = CN[C@@H](CCC(N)=O)C(=O)O; Cbz = O=C(OCc1ccccc1)*; Lac = C[C@H](O)C(=O)O
# Legend:
# [1] = biological target: T1, Beta-secretase 1 (Homo sapiens, UniProt P56817); test: Inhibition of BACE1 (unknown origin) after 90 mins by fluorescence assay
# T1 sequence (P56817 whole entry): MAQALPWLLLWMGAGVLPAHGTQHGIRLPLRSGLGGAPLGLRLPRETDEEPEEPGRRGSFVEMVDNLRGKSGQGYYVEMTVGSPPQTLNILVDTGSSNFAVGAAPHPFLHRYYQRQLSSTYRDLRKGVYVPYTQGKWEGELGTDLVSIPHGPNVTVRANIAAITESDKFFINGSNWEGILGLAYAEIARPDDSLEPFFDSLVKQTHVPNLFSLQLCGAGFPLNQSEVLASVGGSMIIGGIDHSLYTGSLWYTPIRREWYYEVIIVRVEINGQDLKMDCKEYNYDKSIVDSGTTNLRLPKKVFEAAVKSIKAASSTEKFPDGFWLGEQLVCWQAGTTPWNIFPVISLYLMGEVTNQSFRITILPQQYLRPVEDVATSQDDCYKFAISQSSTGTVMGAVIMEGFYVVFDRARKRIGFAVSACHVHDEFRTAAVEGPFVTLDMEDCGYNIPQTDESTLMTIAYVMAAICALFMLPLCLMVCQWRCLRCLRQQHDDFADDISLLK
# [2] = biological target: T1, Beta-secretase 1; test: Inhibition of BACE1 (unknown origin) at 10 uM after 90 mins by fluorescence assay
Structure (SMILES),IC50 ([1]; read-out: IC50),inhibition [2],IC50 [1]
COC(=O)[C@@H](Cc1ccccc1)N(C)C(=O)[C@H](C)NC(=O)[C@H](CC(C)C)NC(=O)C[C@H](O)[C@H](Cc1ccccc1)NC(=O)[C@H](CCC(N)=O)N(C)C(=O)OCc1ccccc1,> 10 µM,49.5%,
CCCN(CCC)C(=O)c1cccc(C(=O)N[C@@H](Cc2ccccc2)[C@@H](O)CC(=O)N[C@@H](CC(C)C)C(=O)N[C@@H](C)C(=O)N(C)[C@H](Cc2ccccc2)C(=O)OCc2ccccc2)c1,1.01 µM,89.4%,
CC(C)C[C@H](NC(=O)C[C@H](O)[C@H](Cc1ccccc1)NC(=O)c1cccc(C(=O)N2CCCC2=O)c1)C(=O)N[C@@H](C)C(=O)N(C)[C@H](Cc1ccccc1)C(=O)O,> 10 µM,35.1%,
COC(=O)[C@H](C)NC(=O)[C@H](CC(C)C)NC(=O)C[C@H](O)[C@H](Cc1ccccc1)NC(=O)OC(C)(C)C,> 10 µM,11.6%,
CC(C)C[C@H](NC(=O)C[C@H](O)[C@H](Cc1ccccc1)NC(=O)[C@@H](N)Cc1cc2ccccc2[nH]1)C(=O)N[C@@H](C)C(=O)N(C)[C@H](Cc1ccccc1)C(=O)OCc1ccccc1,> 10 µM,33.9%,
COC(=O)C[C@H](O)[C@H](Cc1ccccc1)NC(=O)[C@H](CCC(N)=O)N(C)C(=O)OCc1ccccc1,,inactive,Not Active
CCCN(CCC)C(=O)c1cccc(C(=O)N[C@@H](Cc2ccccc2)[C@@H](O)CC(=O)N[C@@H](CC(C)C)C(=O)N[C@@H](C)C(=O)N(C)[C@H](Cc2ccccc2)C(=O)OCc2ccccc2)n1,> 10 µM,28.7%,
COC(=O)[C@H](CC(C)C)NC(=O)C[C@H](O)[C@H](Cc1ccccc1)NC(=O)[C@H](CCC(N)=O)N(C)C(=O)OCc1ccccc1,> 10 µM,24.2%,
COC(=O)[C@H](CC(C)C)NC(=O)C[C@H](O)[C@H](Cc1ccccc1)NC(=O)[C@H](CCC(N)=O)N(C)C(=O)[C@@H](NC(=O)OCc1ccccc1)C(C)C,4.46 µM,75%,
COC(=O)[C@H](C)NC(=O)[C@H](CC(C)C)NC(=O)C[C@H](O)[C@H](Cc1ccccc1)NC(=O)[C@H](CCC(N)=O)N(C)C(=O)OCc1ccccc1,> 10 µM,17.5%,
COC(=O)[C@H](CC(C)C)NC(=O)C[C@H](O)[C@H](Cc1ccccc1)NC(=O)OC(C)(C)C,> 10 µM,25.8%,
CC(C)C[C@H](NC(=O)C[C@H](O)[C@H](Cc1ccccc1)NC(=O)c1cccc(C(=O)N2CCCC2=O)c1)C(=O)N[C@@H](C)C(=O)N(C)[C@H](Cc1ccccc1)C(=O)OCc1ccccc1,> 10 µM,28.4%,
CCCN(CCC)C(=O)c1cccc(C(=O)N[C@@H](Cc2ccccc2)[C@@H](O)CC(=O)N[C@@H](CC(C)C)C(=O)N[C@@H](C)C(=O)N(C)[C@H](Cc2ccccc2)C(=O)O)n1,> 10 µM,35%,
COC(=O)[C@@H](Cc1ccccc1)N(C)C(=O)[C@H](C)NC(=O)[C@H](CC(C)C)NC(=O)C[C@H](O)[C@H](Cc1ccccc1)NC(=O)[C@H](CCC(N)=O)N(C)C(=O)[C@@H](NC(=O)OCc1ccccc1)C(C)C,0.87 µM,97%,
"COC(=O)[C@H](C)NC(=O)[C@H](CC(C)C)NC(=O)C[C@H](O)[C@H](Cc1ccccc1)NC(=O)[C@H](CCC(N)=O)N(C)C(=O)[C@@H](NC(=O)OCc1ccccc1)C(C)C (Cbz-V[NMeQ][Ahppa(3S,4S)]LA-OMe)",2.61 µM,90.6%,
CCCN(CCC)C(=O)c1cccc(C(=O)N[C@@H](Cc2ccccc2)[C@@H](O)CC(=O)N[C@@H](CC(C)C)C(=O)N[C@@H](C)C(=O)N(C)[C@H](Cc2ccccc2)C(=O)O)c1,0.48 µM,97.2%,
"CC(C)C[C@H](NC(=O)C[C@H](O)[C@H](Cc1ccccc1)NC(=O)[C@H](CCC(N)=O)N(C)C(=O)[C@@H](NC(=O)[C@H](C)O)C(C)C)C(=O)N[C@@H](C)C(=O)N(C)[C@H](Cc1ccccc1)C(=O)O (H-[Lac]V[NMeQ][Ahppa(3S,4S)]LA[dNMeF]-OH)",0.078 µM,,
CC(C)C[C@H](NC(=O)C[C@H](O)[C@H](Cc1ccccc1)NC(=O)OC(C)(C)C)C(=O)N[C@@H](C)C(=O)N(C)[C@H](Cc1ccccc1)C(=O)OCc1ccccc1,> 10 µM,4.44%,
COC(=O)C[C@H](O)[C@H](Cc1ccccc1)NC(=O)[C@H](CCC(N)=O)N(C)C(=O)[C@@H](NC(=O)OCc1ccccc1)C(C)C,> 10 µM,22.1%,
CC(C)C[C@H](NC(=O)C[C@H](O)[C@H](Cc1ccccc1)NC(=O)OC(C)(C)C)C(=O)N[C@@H](C)C(=O)N(C)[C@H](Cc1ccccc1)C(=O)O,> 10 µM,41.7%,
